The numbers were not newly measured in patent publication US7534449B2, “Targeted and high density drug loaded polymeric materials” (Yale University, priority 2004, dated 2009), which cites them from elsewhere.

For `COc1cccc2c1C(=O)c1c(O)c3c(c(O)c1C2=O)C[C@@](O)(C(=O)CO)C[C@@H]3O[C@H]1C[C@H](N)[C@H](O)[C@H](C)O1` [Dox, doxorubicin], the pKa is recorded as 7.6. The solubility entry (aqueous environments) is “limited solubility”.
